From patent publication US20110224213A1, “Use of Glutaric Acid Derivatives or the Pharmaceutically Acceptable Salts Thereof as Anti-Arrhythmic Agents” (priority 2008, published 2011)
Counter-ions that a name gives are not always drawn. Like-named read-outs stand apart in the source and are kept apart here. Marks after values point to notes of the source that are not given here.

Columns and labels:
[1] = test system: occlusive arrhythmia in cats; assay: Early occlusive arrhythmia in cats (coronary artery ligation); conditions: for effect on experimental lethality: 23% lethality in the control; for anti-arrhythmic effect: dose of 0.05 mg/kg, intravenous
[2] = test system: aconitic arrhythmia in mice; assay: animal or person; format: in vivo
Experimental: Arrhythmia was reproduced according to the method of Ju. I. Vikhlyayev and N. V. Kaverina (1958) [Kaverina N. V., Berdyaev S. Ju., Kuschuk E. P., Paskhina O. E. Methodical indications in respect to a study of the anti-arrhythmic activity of new pharmacological substances. Manual on experimental (pre-clinical) study of new pharmacological substances. Edited by V. P. Fisenko.—Moscow. 2000. Page 210]. Aconitine nitrate was administered to the animals in a dose of 50 μg/kg intravenously.
(§1) This model makes it possible to assess the scope of the therapeutic action of the presented compounds and the N-succinyl-D,L-tryptophane dipotassium salt. Assessment of the scope of the therapeutic action was carried out in accordance with the value of the anti-arrhythmic index (AAI), determined as the ratio LD50 upon the oral method of administering to ED50 on an aconitic model of arrhythmia.

[3] = test system: adrenal arrhythmia in mice; format: in vivo
[4] = LD50 upon oral administration in mice; conditions: mouse, in vivo, per/os
Experimental: as §1

[5] = mice, dose 0.05 mg/kg, introduced internally
[6] = mice, dose 0.5 mg/kg, introduced internally
[7] = mice, 0.05 and 0.5 mg/kg, introduced internally

Row | Compound | Animals died in group ([1]; dose 0.05 mg/kg, intravenously) | Animals with ventricular arrhythmia (%) ([1]; dose 0.05 mg/kg, intravenously) | Number of animals with ventricular arrhythmia ([1]; dose 0.05 mg/kg, intravenously) | Time of occurrence of arrhythmia ([1]; dose 0.05 mg/kg, intravenously) | Animals died in group ([1]; dose 0.5 mg/kg, intravenously) | Animals with ventricular arrhythmia (%) ([1]; dose 0.5 mg/kg, intravenously) | Animals lethal (%) [3, 5] | Animals with AV blockage (%) [3, 5] | Animals with ventricular arrhythmia (%) [3, 5] | Lifetime [3, 5] | Number of animals in groups lethal [3, 5] | Number of animals in groups with AV blockage [3, 5] | Number of animals in groups with ventricular arrhythmia [3, 5] | Animals lethal (%) [3, 6] | Animals with AV blockage (%) [3, 6] | Animals with ventricular arrhythmia (%) [3, 6] | Lifetime [3, 6] | Number of animals in groups lethal [3, 6] | Number of animals in groups with AV blockage [3, 6] | Number of animals in groups with ventricular arrhythmia [3, 6] | also measured
1 | O=C([O-])CCC(=O)NC(Cc1c[nH]c2ccccc12)C(=O)[O-].[K+].[K+] (racemic) [N-succinyl-D,L-tryptophane dipotassium salt, reference compound] | 0 | 50% | 3 | 19 ± 3 min | 0 | 17% | (100%) | (43%) | (43%) | 16 ± 4 min | 14 | 6* | 6* | (100%) | (57%) | (43%) | 16 ± 4 min | 14 | 8 | 6* | effect on experimental lethality [1]: prevented experimental lethality; Number of animals with ventricular arrhythmia ([1]; dose 0.5 mg/kg, intravenously): 1; Time of occurrence of arrhythmia ([1]; dose 0.5 mg/kg, intravenously): 21 min; anti-arrhythmic effect [1]: did not demonstrate a reliable anti-arrhythmic effect; animals died after administration of the substance ([2]; per/os, dose of 50 mg/kg, mice): 50%; test animals in which arrhythmia develops ([2]; per/os, interval of doses 0.05-5 mg/kg, mice): 71-100%
2 | O=C(O)CCCC(=O)N[C@@H](Cc1c[nH]c2ccccc12)C(=O)O [Compound II, N^α-glutaryl-L-tryptophane] | 1 | 86% | 6 | 17 ± 2 min | 0 | 29% | (50%) | (0%) | (0%) | 22 ± 3.4 min | 7* | 0* | 0* | (50%) | (29%) | (0%) | 19 ± 2.8 min | 7* | 4* | 0* | Animals died in group (%) ([1]; dose 0.05 mg/kg, intravenously): 14%; Number of animals with ventricular arrhythmia ([1]; dose 0.5 mg/kg, intravenously): 2; Time of occurrence of arrhythmia ([1]; dose 0.5 mg/kg, intravenously): 17 to 20 min
3 | O=C(O)CCCC(=O)NCCc1c[nH]cn1 [Compound IV, glutaryl histamine] |  |  |  |  |  |  | (79%) | (21%) | (29%) | 24 ± 3 min | 11 | 3* | 4* | (100%) | (29%) | (14%) | 18 ± 0.8 min | 14 | 4* | 2* | effect on life span of the test animals ([3]; mouse, in vivo, 0.05 mg/kg): effectively increased the life span
4 | CCCCc1oc2ccccc2c1C(=O)c1cc(I)c(OCCN(CC)CC)c(I)c1 [Cordaron, amiodaron, reference compound] |  |  |  |  |  |  |  |  |  |  |  |  |  |  |  |  |  |  |  |  | Animals died in group ([1]; dose 1.0 mg/kg, intravenously): 0; Animals with ventricular arrhythmia (%) ([1]; dose 1.0 mg/kg, intravenously): 40%; Number of animals with ventricular arrhythmia ([1]; dose 1.0 mg/kg, intravenously): 4; Time of occurrence of arrhythmia ([1]; dose 1.0 mg/kg, intravenously): 21 ± 6 min
5 | O=C(O)CCCC(=O)NCCc1c[nH]c2ccccc12 [Compound XIII mono-sodium salt] |  |  |  |  |  |  | (43%) | (43%) | (36%) | 17 ± 4 min | 6* | 6* | 5* | (36%) | (29%) | (21%) | 28 ± 9 min | 5* | 4* | 3* | 
6 | O=C(O)CCCC(=O)N[C@@H](Cc1c[nH]c2ccccc12)C(=O)O [Compound II mono-sodium salt, mono-sodium salt N^α-glutaryl-L-tryptophane] |  |  |  |  |  |  | (50%) | (0%) | (0%) | 22 ± 3.4 min | 7* | 0* | 0* | (50%) | (36%) | (0%) | 19 ± 2.8 min | 7* | 5* | 0* | effect on lethality of the test animals [3, 7]: statistically reliably reduced the lethality; effect on ventricular ectopic complexes ([3]; mice, introduced internally): elimination of the ventricular ectopic complexes in all of the test animals
7 | CC(C)NCC(O)COc1cccc2ccccc12 (stereo not drawn) [Propranolol, propranolol, reference compound] |  |  |  |  |  |  |  |  |  |  |  |  |  |  |  |  |  |  |  |  | Animals died in group ([1]; dose 1.0 mg/kg, intravenously): 0; Animals with ventricular arrhythmia (%) ([1]; dose 1.0 mg/kg, intravenously): 28%; Number of animals with ventricular arrhythmia ([1]; dose 1.0 mg/kg, intravenously): 2; Time of occurrence of arrhythmia ([1]; dose 1.0 mg/kg, intravenously): 24 ± 1 min; Animals with AV blockage (%) ([3]; mouse, in vivo, 0.1 mg/kg): (36%); Animals with ventricular arrhythmia (%) ([3]; mouse, in vivo, 0.1 mg/kg): (29%); Lifetime ([3]; mouse, in vivo, 0.1 mg/kg): 20 ± 4 min; Number of animals in groups with AV blockage ([3]; mouse, in vivo, 0.1 mg/kg): 5*; Number of animals in groups with ventricular arrhythmia ([3]; mouse, in vivo, 0.1 mg/kg): 4*; Animals with AV blockage (%) ([3]; mouse, in vivo, 0.5 mg/kg): (29%); Animals with ventricular arrhythmia (%) ([3]; mouse, in vivo, 0.5 mg/kg): (50%); Lifetime ([3]; mouse, in vivo, 0.5 mg/kg): 23 ± 4 min; Number of animals in groups with AV blockage ([3]; mouse, in vivo, 0.5 mg/kg): 4*; Number of animals in groups with ventricular arrhythmia ([3]; mouse, in vivo, 0.5 mg/kg): 7*
8 | O=C(O)CCCC(=O)N[C@@H](Cc1c[nH]cn1)C(=O)O [Compound III, N^α-glutaryl-L-histidine] | 0 | 25% | 2 | 18 ± 2 min | 0 | 17% | (86%) | (29%) | (43%) | 32 ± 7 min | 12 | 4* | 6* | (79%) | (21%) | (29%) | 33 ± 5 min | 11 | 3* | 4* | effect on experimental lethality [1]: prevented experimental lethality; Number of animals with ventricular arrhythmia ([1]; dose 0.5 mg/kg, intravenously): 1; Time of occurrence of arrhythmia ([1]; dose 0.5 mg/kg, intravenously): 18 min; anti-arrhythmic effect [1]: had reliable activity; ED50 ([2]; Mus musculus, iv): 0.185 ± 0.083 mg/kg; prevention of atrioventricular heart arrhythmia caused by aconitine nitrate ([2]; mice, administration internally): effectively prevents atrioventricular heart arrhythmia; LD50 [4]: 4500 mg/kg; effect on life span of the test animals [3, 7]: effectively increased the life span
9 | O=C(O)CCCC(=O)NCCc1ccccn1 [Compound X] |  |  |  |  |  |  | (70%) | (70%) | (60%) | 13 ± 4 min | 7* | 7 | 6* | (70%) | (60%) | (30%) | 27 ± 6 min | 7* | 6 | 3* | 
10 | O=C(O)CCCC(=O)NCCc1ccncc1 [Compound IX] |  |  |  |  |  |  | (80%) | (100%) | (70%) | 21 ± 6 min | 8 | 10 | 7 | (60%) | (50%) | (20%) | 32 ± 4 min | 6* | 5 | 2* | 
